Laboratory results published in US20260318918A1, “CANCER DIAGNOSTICS AND TREATMENT BY MEANS OF PRMT5 INHIBITOR” (ARGONAUT THERAPEUTICS LIMITED, priority 2022, published 2026).

Tests used:
Format in all cases: cell-based
[1] = system: T-47D cell line (breast cancer); assay: MTT cell viability assay, T-47D (breast cancer), CRISPR knock-out; conditions: 8 days; for sensitivity to PRMT5 inhibition (cell viability) of cells lacking E2F1: E2F1 deleted by CRISPR; for sensitivity to PRMT5 inhibition (cell viability) of cells lacking pRb: pRb deleted by CRISPR
Protocol: (§1) T-47D cells were maintained in growth medium (RPMI 1640 supplemented with 10% v/v heat inactivated fetal bovine serum and cultured at 37° C., 5% CO2, U2OS, MCF7 and HCT116 cells were maintained in growth medium (DMEM supplemented with 10% v/v heat inactivated fetal bovine serum) and cultured at 37° C., 5% CO2. Under assay conditions, cells were incubated in assay medium (RPMI 1640 or […] supplemented with 10% v/v heat inactivated fetal bovine serum and 100 units/mL penicillin-streptomycin) at 37° C. under 5% CO2. For the assessment of the effect of compounds on the proliferation of the cancer cell lines, exponentially growing cells were plated into 96-well plates overnight at a density of 1,000 cells/well in a final volume of 100 μl of cell growth medium. The next day the cells were dosed with compounds (T-992, GSK3326595, LLY-283, PF-06939999 and JNJ64619178) (quadruplicate ten-point 5-fold serial dilutions in DMSO), beginning at 100 μM. After addition of compounds, assay plates were incubated for 8 days at 37° C., 5% CO2, relative humidity 90%. NAD(P)H-dependent cellular oxidoreductase enzyme activity was measured by adding 100 μl thiazolyl blue tetrazolium bromide (MTT: Sigma-Aldrich) to the wells at a final concentration of 5 μM and incubated for 2 h at 37° C. Next, media was discarded from the wells and the formazan crystals were dissolved in 100 μl DMSO by shaking for 15 min. Absorbance was read on the Omega FLUOstar plate reader (BMG Labtech Ltd, Ortenberg, Germany) at a wavelength of 584 nm. Data were analysed and IC50 values determined using MARs data analysis software (BMG Labtech Ltd, Ortenberg, Germany). The concentration of compound inhibiting cell viability by 50% was determined using a 4-parametric fit of the normalized dose response curves.
(§2) pSpCas9(BB)-2A-Puro (Addgene plasmid ID: 48139) was used for the generation of E2F1 and pRb knock out cell lines using CRISPR-Cas9 technology. Cell lines were generated as detailed in (Ran et al., 2013).

[2] = system: HCT116 cell line (colorectal cancer); assay: MTT cell viability assay, HCT116 (colorectal cancer), CRISPR knock-out; conditions: E2F1 deleted by CRISPR, 8 days
Protocol: as §1, §2

[3] = system: U20S cell line (bone cancer); assay: MTT cell viability assay, U20S (bone cancer), CRISPR knock-out; conditions: pRb deleted by CRISPR, 8 days
Protocol: as §1, with “The next day the cells were dosed with compounds (T-992, GSK3326595, LLY-283, PF-06939999 and JNJ64619178) (quadruplicate ten-point 5-fold serial dilutions in DMSO), beginning at 100 μM. After addition of compounds, assay plates were incubated for 8 days at 37° C., 5% CO2, relative humidity 90%.” left out, “Next, media was discarded from the wells and the formazan crystals were dissolved in 100 μl DMSO by shaking for 15 min.” left out, “curves. […]” for “curves.”

Nc1ncnc2c1ccn2[C@@H]1O[C@H]([C@H](O)c2ccccc2)[C@@H](O)[C@H]1O [LLY-283]
sensitivity to PRMT5 inhibition (cell viability) of cells lacking E2F1 [1]: less sensitive | sensitivity to PRMT5 inhibition (cell viability) of cells lacking E2F1 [2]: less sensitive

Nc1nc2cc(CC[C@H]3C[C@@H](n4ccc5c(N)ncnc54)[C@H](O)[C@@H]3O)ccc2cc1Br [JNJ64619178]
sensitivity to PRMT5 inhibition (cell viability) of cells lacking E2F1 [1]: less sensitive | sensitivity to PRMT5 inhibition (cell viability) of cells lacking E2F1 [2]: less sensitive

Cc1ncnc2c1ccn2[C@@H]1C[C@H](Oc2cc(C(F)F)c(F)c3c2CNCC3)[C@@H](O)[C@H]1O [PF06939999]
sensitivity to PRMT5 inhibition (cell viability) of cells lacking E2F1 [1]: less sensitive | sensitivity to PRMT5 inhibition (cell viability) of cells lacking pRb [1]: more sensitive | sensitivity to PRMT5 inhibition (cell viability) of cells lacking E2F1 [2]: less sensitive

CC(=O)N1CCC(Nc2cc(C(=O)NC[C@H](O)CN3CCc4ccccc4C3)ncn2)CC1 [GSK3326595]
sensitivity to PRMT5 inhibition (cell viability) of cells lacking E2F1 [1]: less sensitive | sensitivity to PRMT5 inhibition (cell viability) of cells lacking pRb [1]: more sensitive | sensitivity to PRMT5 inhibition (cell viability) of cells lacking E2F1 [2]: less sensitive

O[C@@H]1CO[C@H]2[C@@H]1OC[C@@H]2O [AT101]
sensitivity to PRMT5 inhibition (cell viability) of cells lacking E2F1 [1]: less sensitive | sensitivity to PRMT5 inhibition (cell viability) of cells lacking pRb [1]: more sensitive | sensitivity to PRMT5 inhibition (cell viability) of cells lacking pRb [3]: more sensitive | sensitivity to PRMT5 inhibition (cell viability) of cells lacking E2F1 [2]: less sensitive
